Reference: US20020026053A1, “Novel 3-(substituted) -2- indolinones compounds and use thereof as inhibitors of protein kinase activity” (priority 1997, published 2002)
Like-named read-outs stand apart in the source and are kept apart here.

Assays:
[1] = test system: FLK-1 receptor; assay: FLK-1 Assay (cellular/catalytic ELISA, VEGF-stimulated phosphotyrosine); format: cell-based; design: concentration or dose not given beside the values
Procedure, shortened: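 Receptor phosphotyrosine ELISA: Flk-1-expressing NIH3T3 C7#3 cells, starved overnight in 0.1% FBS medium, received compound (1:200 final dilution, 0.5% DMSO) for 2 h at 37 °C, then VEGF. Anti-FLK-1-captured receptor was probed with anti-phosphotyrosine UB40 and peroxidase/ABTS read-out, relative to cells without compound.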

[2] = test system: PDGF-R; assay: PDGF-R Assay (cellular ELISA, U1242 cells); format: cell-based; design: concentration or dose not given beside the values
Procedure, shortened: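 Cellular ELISA for receptor autophosphorylation: after 2 hr test-compound treatment of serum-free U1242 cells at 37°C, ligand is added for 5–10 min, cells are lysed (HNTG) and receptor captured by specific antibody. Anti-phosphotyrosine plus secondary antibody with ABTS colour read at 410/630 nm, compared with compound-free control cells.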

Row | Compound | Flk Kinase % Inhibition (P.110) [1] [%] | PDGF Kinase % Inhibition (P.119) [2] [%] | Flk Kinase % Inhibition (P.110) ([1]; protocol P.110) [%] | PDGF Kinase % Inhibition (P.119) ([2]; protocol P.119) [%]
1 | Cc1cc(C=C2C(=O)Nc3c(Br)cc(Br)c(C)c32)cc(C(C)(C)C)c1O [10726/H04] | 2.5 | 13.2 | – | –
2 | COc1cccc(C=C2C(=O)Nc3ccc(S(=O)(=O)N4CCOCC4)cc32)c1 [10736/F10] | 7.7 | 11.0 | – | –
3 | O=C1Nc2ccc(S(=O)(=O)N3CCOCC3)cc2C1=Cc1ccccc1Cl [10736/F11] | 3.7 | 4.4 | – | –
4 | O=C1Nc2ccc(CCCl)cc2C1=Cc1ccc(Cl)cc1 [10736/G02] | −7.2 | −5.2 | – | –
5 | O=C1Nc2ccc(CCCl)cc2C1=Cc1ccccc1C(F)(F)F [10736/G03] | 4.5 | 1.4 | – | –
6 | Cc1cccc(C=C2C(=O)Nc3ccc(CCCl)cc32)c1 [10736/G04] | 13.0 | −8.3 | – | –
7 | O=C1Nc2ccc(CCCl)cc2C1=Cc1cccc(F)c1 [10736/G07] | – | – | 9.4 | −14.8
8 | O=C1Nc2ccc(CCCl)cc2C1=Cc1ccccc1F [10736/G08] | – | – | −0.1 | −9.2
9 | CCc1ccc(C=C2C(=O)Nc3ccc(CCCl)cc32)cc1 [10736/G09] | – | – | −2.1 | −3.5
10 | COc1cccc(C=C2C(=O)Nc3ccc(CCCl)cc32)c1 [10736/G10] | – | – | 6.0 | −7.4
11 | O=C1Nc2ccc(CCCl)cc2C1=Cc1ccccc1Cl [10736/G11] | – | – | 0.0 | −1.7
12 | Cc1c(Br)cc(Br)c2c1C(=Cc1ccc(Cl)cc1)C(=O)N2 [10736/H02] | – | – | 6.1 | −6.1
13 | Cc1c(Br)cc(Br)c2c1C(=Cc1ccccc1C(F)(F)F)C(=O)N2 [10736/H03] | – | – | 15.1 | 2.2
14 | Cc1cccc(C=C2C(=O)Nc3c(Br)cc(Br)c(C)c32)c1 [10736/H04] | – | – | 14.0 | −10.9
15 | Cc1ccc(C=C2C(=O)Nc3c(Br)cc(Br)c(C)c32)cc1 [10736/H05] | – | – | 16.3 | −10.0
16 | Cc1c(Br)cc(Br)c2c1C(=Cc1cccc(Cl)c1)C(=O)N2 [10736/H06] | – | – | 15.5 | 9.3
